Data taken from patent publication US9353075B2, “Disubstituted beta-lactones as inhibitors of N-acylethanolamine acid amidase (NAAA)” (The Regents of the University of California, priority 2011, dated 2016).
pIC50: −log10 of the molar value. Entries after “also recorded” stand apart in the source; their conditions may differ.

Columns and labels:
[1] = target: r-NAAA (Rattus norvegicus (Rat), UniProt Q5KTC7); assay: r-NAAA inhibition, rat lung lysosomal NAAA preparation, UPLC/MS; format: biochemical
Chain of r-NAAA (Q5KTC7 34-362): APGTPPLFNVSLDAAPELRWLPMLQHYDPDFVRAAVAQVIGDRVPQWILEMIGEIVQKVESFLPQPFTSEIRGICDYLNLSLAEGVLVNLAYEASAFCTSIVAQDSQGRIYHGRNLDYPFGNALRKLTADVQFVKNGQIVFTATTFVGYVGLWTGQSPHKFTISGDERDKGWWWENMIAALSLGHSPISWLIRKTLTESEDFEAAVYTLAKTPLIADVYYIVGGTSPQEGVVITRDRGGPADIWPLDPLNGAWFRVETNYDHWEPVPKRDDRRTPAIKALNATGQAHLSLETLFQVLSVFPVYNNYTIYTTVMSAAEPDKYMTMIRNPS
Outline: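 Substrate was 50 μM heptadecenoylethanolamide, incubated 30 min at 37 °C after a 30 min compound preincubation at pH 4.5 with 1% Triton-X and 3 mM DTT. The enzyme source was rat lung lysosomal preparation. IC50 came from curve fitting of reduced heptadecenoic acid product, measured by negative-mode UPLC/MS versus vehicle.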

[2] = target: h-NAAA (Homo sapiens (Human), UniProt Q02083); assay: Fluorogenic h-NAAA assay; format: biochemical
Chain of h-NAAA (Q02083 29-359): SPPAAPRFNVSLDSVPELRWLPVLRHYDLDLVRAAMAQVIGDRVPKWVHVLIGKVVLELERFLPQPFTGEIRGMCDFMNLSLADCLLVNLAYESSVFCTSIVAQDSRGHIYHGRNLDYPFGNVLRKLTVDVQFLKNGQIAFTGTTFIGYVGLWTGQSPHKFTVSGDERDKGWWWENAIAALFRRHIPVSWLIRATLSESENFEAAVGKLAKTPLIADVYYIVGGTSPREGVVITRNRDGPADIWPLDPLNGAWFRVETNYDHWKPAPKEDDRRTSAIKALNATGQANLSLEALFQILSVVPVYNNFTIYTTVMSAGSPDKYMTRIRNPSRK
Protocol: (§1) The assay was run in Optiplate 96-wells black plates, in a total reaction volume of 200 mL. NAAA protein preparations (4 ng) were pre-incubated for 10 minutes with various concentrations of test compounds or vehicle control (5% DMSO) in 100 mM citrate/phosphate buffer (pH 4.5) containing 3.0 mM DTT, 0.1% Triton X-100, 0.05% BSA, 150 mM NaCl. N-(4-methyl-2-oxo-chromen-7-yl)-hexadecanamide was used as a substrate (5.0 μM) and the reaction carried over for 30 minutes at 37° C. Fluorescence in the samples was quantified in a Perkin Elmer Envision plate reader using an excitation wavelength of 360 nm and emission 460 nm. IC50 values were calculated by non-linear regression analysis of log [concentration]/inhibition curves using GraphPad Prism 5 (GraphPad Software Inc., CA—USA) applying a standard slope curve fitting.
as §1, with “μL.” for “mL.”, “preparation (4.0 μg) was” for “preparations (4 ng) were”, “min” for “minutes”, “The” for “Fluorescence in the”, “were then read” for “was quantified”

[3] = target: Acid Ceramidase (AC) (Rattus norvegicus (Rat), UniProt Q6P7S1); assay: Acid ceramidase inhibition, recombinant rat AC, LC-MS; format: biochemical; conditions: read-out: r-AC % inhib. @ 10 μM
Chain of Acid Ceramidase (AC) (Q6P7S1 21-394): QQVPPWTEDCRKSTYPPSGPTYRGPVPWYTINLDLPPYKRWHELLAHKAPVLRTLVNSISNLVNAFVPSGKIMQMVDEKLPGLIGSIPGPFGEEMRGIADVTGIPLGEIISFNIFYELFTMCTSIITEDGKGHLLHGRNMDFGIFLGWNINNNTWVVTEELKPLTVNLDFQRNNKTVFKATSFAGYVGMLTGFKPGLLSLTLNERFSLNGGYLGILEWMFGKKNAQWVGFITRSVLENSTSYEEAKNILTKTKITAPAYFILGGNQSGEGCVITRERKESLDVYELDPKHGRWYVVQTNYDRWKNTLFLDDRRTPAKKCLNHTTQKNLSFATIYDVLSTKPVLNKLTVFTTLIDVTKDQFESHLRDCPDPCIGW

[4] = system: DNFB-induced scratching; assay: DNFB-induced scratching in mice; format: in vivo, mouse; conditions: topical, single dose
Protocol: The methods included the following. Dermatitis was produced in mice using 2-4 dinitrofluorobenzene (DNFB) as described by Buckley and Nijkamp (1994), Am J Respir Grit Care Med 149:400-7. Mice were sensitized on two consecutive days with a 0.5% DNFB solution applied to the shaved abdomen. At day 8, the ears were challenged with a 0.2% DNFB solution. Ear thickness was determined by using a micrometer. Scratching was evaluated as number of episodes per 60 minutes period. Data were analysed by ANOVA followed by the Bonferroni's test. See also Hargreaves K, et al (1988), Pain 32: 77-88 for related information.
The methods include the following. Itching in mice was induced with DNFB as previously described. Additional studies were done with 48/80 model (an inducer of mast cell degranulation). 48/80 was given subcutaneously (30 mg per kg). Data were analysed by ANOVA followed by Bonferroni's test for multiple comparisons.

pIC50 [1]: 7.30 | pIC50 [2]: 7.85 | inhibition at 10 µM [3]: < 10%
Compound: C[C@@H]1OC(=O)[C@@H]1NC(=O)OCCCCCc1ccccc1 [Example 6, 5-phenylpentyl-[(2S,3R)-2-methyl-4-oxooxetan-3-yl]-carbamate]
DNFB-induced scratching [4]: prevents DNFB-induced scratching; also recorded: prevented itching | Dose of full effect, DNFB-induced scratching [4]: 1-3% | Lowest effective dose, DNFB-induced scratching [4]: 0.001%
